Here are results for 60 compounds from ChEMBL document CHEMBL5241054, “Effective anti-aromatase therapy to battle against estrogen-mediated breast cancer: Comparative SAR/QSAR assessment on steroidal aromatase inhibitors” (Eur J Med Chem, 2020).

A word on the IC50: it is the concentration at which inhibition is half-maximal. Read a low IC50 as greater potency in that assay.

The assay has as its target T1, Aromatase (Homo sapiens, UniProt P11511).
T1 sequence (P11511 whole entry): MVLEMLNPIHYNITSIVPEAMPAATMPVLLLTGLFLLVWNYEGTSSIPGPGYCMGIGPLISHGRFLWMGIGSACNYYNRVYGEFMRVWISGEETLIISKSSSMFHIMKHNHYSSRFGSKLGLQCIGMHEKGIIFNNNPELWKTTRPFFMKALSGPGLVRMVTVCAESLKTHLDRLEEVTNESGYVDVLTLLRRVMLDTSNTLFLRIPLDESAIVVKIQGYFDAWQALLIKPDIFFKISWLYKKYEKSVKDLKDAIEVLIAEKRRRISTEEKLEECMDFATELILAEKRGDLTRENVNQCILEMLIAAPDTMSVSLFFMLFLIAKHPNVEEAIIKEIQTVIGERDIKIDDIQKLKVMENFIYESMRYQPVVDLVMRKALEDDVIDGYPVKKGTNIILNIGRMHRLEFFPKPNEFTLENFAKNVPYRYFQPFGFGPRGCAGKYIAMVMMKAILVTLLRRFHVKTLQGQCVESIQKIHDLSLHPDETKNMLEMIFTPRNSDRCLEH
Turning to `C[C@]12C=CC(=O)C=C1C=C[C@@H]1[C@@H]2CC[C@]2(C)C(=O)CC[C@@H]12`, half-maximal inhibition (IC50) was put at 0.45 µM.
With `C[C@]12CCC(=O)C=C1C[C@@H](CCc1ccccc1)[C@@H]1[C@@H]2CC[C@]2(C)C(=O)CC[C@@H]12` the figure was 0.138 µM; with `C[C@]12CCC(=O)C=C1C[C@@H](Cc1ccccc1)[C@@H]1[C@@H]2CC[C@]2(C)C(=O)CC[C@@H]12`, 0.328 µM; with `CCCCC1=C[C@@H]2[C@H](CC[C@]3(C)C(=O)CC[C@@H]23)[C@@]2(C)C=CC(=O)C=C12`, 0.25 µM.
As to `CCCCC[C@@H]1C[C@@H]2[C@H](CC[C@]3(C)C(=O)CC[C@@H]23)[C@@]2(C)C=CC(=O)C=C12`, inhibition was half-maximal at 0.054 µM (IC50).
For `CCCC[C@@H]1C[C@@H]2[C@H](CC[C@]3(C)C(=O)CC[C@@H]23)[C@@]2(C)CCC(=O)C=C12`, the IC50 was 0.511 µM.
`C[C@]12C=CC(=O)C=C1C(CCc1ccccc1)=C[C@@H]1[C@@H]2CC[C@]2(C)C(=O)CC[C@@H]12` showed an IC50 of 0.0729 µM.
With `C[C@]12CCC(=O)C=C1[C@@H](CCc1ccccc1)C[C@@H]1[C@@H]2CC[C@]2(C)C(=O)CC[C@@H]12`, the half-maximal inhibitory concentration (IC50) is 140 µM.
With `CCCCCCC1=C[C@@H]2[C@H](CC[C@]3(C)C(=O)CC[C@@H]23)[C@@]2(C)C=CC(=O)C=C12` the figure was 0.155 µM; with `CCCCCCCC1=C[C@@H]2[C@H](CC[C@]3(C)C(=O)CC[C@@H]23)[C@@]2(C)C=CC(=O)C=C12`, 0.23 µM.
Regarding `C[C@]12CCC(=O)C=C1[C@@H](Cc1ccccc1)C[C@@H]1[C@@H]2CC[C@]2(C)C(=O)CC[C@@H]12`, the IC50 is 0.661 µM.
For `CCCC1=C[C@@H]2[C@H](CC[C@]3(C)C(=O)CC[C@@H]23)[C@@]2(C)CCC(=O)C=C12` the value was 0.315 µM; for `C[C@]12CCC(=O)C=C1[C@H](CCCCc1ccccc1)C[C@@H]1[C@@H]2CC[C@]2(C)C(=O)CC[C@@H]12`, 135 µM; for `CCCCCCC1=C[C@@H]2[C@H](CC[C@]3(C)C(=O)CC[C@@H]23)[C@@]2(C)CCC(=O)C=C12`, 0.2 µM.
`CCCCC1=C[C@@H]2[C@H](CC[C@]3(C)C(=O)CC[C@@H]23)[C@@]2(C)CCC(=O)C=C12` gave an IC50 of 0.265 µM.
The compound `CCCCCC1=C[C@@H]2[C@H](CC[C@]3(C)C(=O)CC[C@@H]23)[C@@]2(C)C=CC(=O)C=C12` gave an IC50 of 0.14 µM.
The compound `CCC1=C[C@@H]2[C@H](CC[C@]3(C)C(=O)CC[C@@H]23)[C@@]2(C)CCC(=O)C=C12` had an IC50 of 0.39 µM.
For `CC[C@@H]1C[C@@H]2[C@H](CC[C@]3(C)C(=O)CC[C@@H]23)[C@@]2(C)CCC(=O)C=C12` the value was 0.14 µM.
For `CCCC[C@H]1C[C@@H]2[C@H](CC[C@]3(C)C(=O)CC[C@@H]23)[C@@]2(C)CCC(=O)C=C12` the value was 0.791 µM.
With `C[C@]12CCC(=O)C=C1C(CCc1ccccc1)=C[C@@H]1[C@@H]2CC[C@]2(C)C(=O)CC[C@@H]12` the figure was 0.092 µM.
In turn, `CCCC1=C[C@@H]2[C@H](CC[C@]3(C)C(=O)CC[C@@H]23)[C@@]2(C)C=CC(=O)C=C12` gave an IC50 of 0.1 µM.
Turning to `CC[C@@H]1C[C@@H]2[C@H](CC[C@]3(C)C(=O)CC[C@@H]23)[C@@]2(C)C=CC(=O)C=C12`, it took 0.054 µM to reach half-maximal inhibition (IC50).
With `C=C[C@@H]1C[C@@H]2[C@H](CC[C@]3(C)C(=O)CC[C@@H]23)[C@@]2(C)CCC(=O)C=C12` the figure was 0.32 µM; with `C[C@]12CCC(=O)C=C1C(Cc1ccccc1)=C[C@@H]1[C@@H]2CC[C@]2(C)C(=O)CC[C@@H]12`, 0.078 µM; with `CCCCCCCC1=C[C@@H]2[C@H](CC[C@]3(C)C(=O)CC[C@@H]23)[C@@]2(C)CCC(=O)C=C12`, 0.43 µM.
With `C[C@@H]1C[C@@H]2[C@H](CC[C@]3(C)C(=O)CC[C@@H]23)[C@@]2(C)CCC(=O)C=C12` the figure was 0.719 µM.
Compound `C[C@H]1C[C@@H]2[C@H](CC[C@]3(C)C(=O)CC[C@@H]23)[C@@]2(C)CCC(=O)C=C12` had an IC50 of 0.35 µM.
`CCC1=C[C@@H]2[C@H](CC[C@]3(C)C(=O)CC[C@@H]23)[C@@]2(C)C=CC(=O)C=C12` gave an IC50 of 0.042 µM.
With `CCCCCC1=C[C@@H]2[C@H](CC[C@]3(C)C(=O)CC[C@@H]23)[C@@]2(C)CCC(=O)C=C12` the figure was 0.22 µM.
With `C[C@]12CCC(=O)C=C1C(c1ccccc1)=C[C@@H]1[C@@H]2CC[C@]2(C)C(=O)CC[C@@H]12` the figure was 0.2 µM.
For `C[C@]12CCC(=O)C=C1[C@H](CCc1ccccc1)C[C@@H]1[C@@H]2CC[C@]2(C)C(=O)CC[C@@H]12` the value was 1050 µM.
The compound `C[C@]12CCC(=O)C=C1C(CCCCCc1ccccc1)=C[C@@H]1[C@@H]2CC[C@]2(C)C(=O)CC[C@@H]12` gave an IC50 of 0.3 µM.
`CCCCC[C@H]1C[C@@H]2[C@H](CC[C@]3(C)C(=O)CC[C@@H]23)[C@@]2(C)C=CC(=O)C=C12` gave an IC50 of 0.14 µM.
The compound `C[C@]12CCC(=O)C=C1[C@@H](CCCCc1ccccc1)C[C@@H]1[C@@H]2CC[C@]2(C)C(=O)CC[C@@H]12` gave an IC50 of 340 µM.
For `C[C@]12C=CC(=O)C=C1C(Cc1ccccc1)=C[C@@H]1[C@@H]2CC[C@]2(C)C(=O)CC[C@@H]12` the value was 0.0929 µM.
For `CCCCCC[C@H]1C[C@@H]2[C@H](CC[C@]3(C)C(=O)CC[C@@H]23)[C@@]2(C)C=CC(=O)C=C12`, the IC50 was 0.28 µM.
For `CC(C)[C@H]1C[C@@H]2[C@H](CC[C@]3(C)C(=O)CC[C@@H]23)[C@@]2(C)CCC(=O)C=C12` the value was 1.4 µM; for `CC[C@H]1C[C@@H]2[C@H](CC[C@]3(C)C(=O)CC[C@@H]23)[C@@]2(C)CCC(=O)C=C12`, 0.26 µM.
As for `C[C@]12C=CC(=O)C=C1C(CCCc1ccccc1)=C[C@@H]1[C@@H]2CC[C@]2(C)C(=O)CC[C@@H]12`, 0.35 µM corresponded to half-maximal inhibition (IC50).
The compound `C[C@]12CCC(=O)C=C1[C@H](c1ccccc1)C[C@@H]1[C@@H]2CC[C@]2(C)C(=O)CC[C@@H]12` gave an IC50 of 1.7 µM.
For `C#C[C@@H]1C[C@@H]2[C@H](CC[C@]3(C)C(=O)CC[C@@H]23)[C@@]2(C)CCC(=O)C=C12` the value was 1.9 µM; for `C[C@]12CCC(=O)C=C1[C@@H](c1ccccc1)C[C@@H]1[C@@H]2CC[C@]2(C)C(=O)CC[C@@H]12`, 1.1 µM; for `CCCC[C@@H]1C[C@@H]2[C@H](CC[C@]3(C)C(=O)CC[C@@H]23)[C@@]2(C)C=CC(=O)C=C12`, 0.18 µM.
With `C[C@]12CCC(=O)C=C1[C@@H](CCCCCc1ccccc1)C[C@@H]1[C@@H]2CC[C@]2(C)C(=O)CC[C@@H]12` the figure was 560 µM; with `C[C@]12C=CC(=O)C=C1C[C@@H](CCc1cccc([N+](=O)[O-])c1)[C@@H]1[C@@H]2CC[C@]2(C)C(=O)CC[C@@H]12`, 0.133 µM.
`CC(C)[C@@H]1C[C@@H]2[C@H](CC[C@]3(C)C(=O)CC[C@@H]23)[C@@]2(C)CCC(=O)C=C12` had an IC50 of 1.1 µM.
Turning to `C[C@]12C=CC(=O)C=C1C[C@@H](CCCc1ccc(N)cc1)[C@@H]1[C@@H]2CC[C@]2(C)C(=O)CC[C@@H]12`, the half-maximal inhibitory concentration (IC50) was 0.158 µM.
With `C[C@]12CCC(=O)C=C1[C@@H](CCCc1ccccc1)C[C@@H]1[C@@H]2CC[C@]2(C)C(=O)CC[C@@H]12` the figure was 400 µM.
As to `CCC[C@H]1C[C@@H]2[C@H](CC[C@]3(C)C(=O)CC[C@@H]23)[C@@]2(C)CCC(=O)C=C12`, the IC50 was 0.39 µM.
With `CCCCCCC[C@H]1C[C@@H]2[C@H](CC[C@]3(C)C(=O)CC[C@@H]23)[C@@]2(C)C=CC(=O)C=C12` the figure was 0.25 µM.
For `CCCCCC[C@@H]1C[C@@H]2[C@H](CC[C@]3(C)C(=O)CC[C@@H]23)[C@@]2(C)C=CC(=O)C=C12` the value was 0.076 µM.
For `C[C@]12C=CC(=O)C=C1C(c1ccccc1)=C[C@@H]1[C@@H]2CC[C@]2(C)C(=O)CC[C@@H]12` the value was 0.54 µM.
As to `C[C@]12CCC(=O)C=C1[C@H](CCCCCc1ccccc1)C[C@@H]1[C@@H]2CC[C@]2(C)C(=O)CC[C@@H]12`, the IC50 is 450 µM.
For `C[C@]12CCC(=O)C=C1[C@H](CCCc1ccccc1)C[C@@H]1[C@@H]2CC[C@]2(C)C(=O)CC[C@@H]12` the value was 290 µM.
For `C[C@]12CCC(=O)C=C1C(CCCCc1ccccc1)=C[C@@H]1[C@@H]2CC[C@]2(C)C(=O)CC[C@@H]12` the value was 0.28 µM; for `CCC[C@@H]1C[C@@H]2[C@H](CC[C@]3(C)C(=O)CC[C@@H]23)[C@@]2(C)C=CC(=O)C=C12`, 0.06 µM; for `CCC[C@@H]1C[C@@H]2[C@H](CC[C@]3(C)C(=O)CC[C@@H]23)[C@@]2(C)CCC(=O)C=C12`, 0.24 µM.
`CCCCCCC[C@@H]1C[C@@H]2[C@H](CC[C@]3(C)C(=O)CC[C@@H]23)[C@@]2(C)C=CC(=O)C=C12`: it took 0.06 µM to reach half-maximal inhibition (IC50).
For `C[C@]12CCC(=O)C=C1C(CCCc1ccccc1)=C[C@@H]1[C@@H]2CC[C@]2(C)C(=O)CC[C@@H]12` the value was 0.25 µM.
With `C[C@]12CCC(=O)C=C1[C@H](Cc1ccccc1)C[C@@H]1[C@@H]2CC[C@]2(C)C(=O)CC[C@@H]12` the figure was 4 µM.
